Here are results for 2 compounds from article PMC7887271, “Fast acting allosteric phosphofructokinase inhibitors block trypanosome glycolysis and cure acute African trypanosomiasis in mice” (Nature Communications, 2021).

Like-named read-outs stand apart in the source and are kept apart here.

The nature of series [1]: Pharmacokinetic studies in mice (IV and PO). In kind it is in vivo, female CD-1 mice. Particulars: female, CD-1, plasma, mouse; for AUC(0-inf): read-out: AUC (infinity); for clearance: read-out: CL/kg (converted); for half-life: read-out: Elimination t1/2 (converted); for Vd: read-out: Vd (area); for bioavailability: PO 10 mg kg^−1 vs IV 1 mg kg^−1, read-out: Bioavailability (F%). On the procedure: PK parameters for the lead compounds were determined using three mice per data point (Supplementary Methods 6.1).
Blood samples were collected from terminal cardiac puncture at 0.08 (IV only), 0.25, 0.5, 1 (PO only), 2, 4, 8 and 24 hour time points. The whole blood was centrifuged to obtain plasma. Brains were also collected following cardiac perfusion from both sets of animals at 2 hours. Analysis of the biological samples was carried out by the company Selcia. Plasma proteins were precipitated by addition of PBS (1 volume) followed by 3 volumes of acetonitrile containing internal standard (verapamil). Following filtration through a protein precipitation plate the eluent was dried under nitrogen and re-suspended in mobile phase prior to analysis. Individual brains were homogenised in PBS and diluted to 10% w/v and divided into aliquots consisting of brain homogenate (1 volume, 0.3 ml) and 3 volumes (0.9 ml) of acetonitrile containing internal standard. Samples were centrifuged and supernatants removed and taken through a protein precipitation plate alongside an appropriate standard. Eluents were dried under nitrogen and re-suspended in mobile phase prior to analysis. Eluents were analysed by LC-MS/MS using a Phenomenex Gemini NX column (C18,30 x 2.1 mm, 3 micron). Analysis of the data was carried out using PK solutions software.

Series [2] is described as follows: Metabolic stability, mouse liver microsomes. It counts as in vitro ADME. To be noted: read-out: MLM Clint. On the procedure: A HepG2 cytotoxicity assay was used to determine a cellular selectivity index. HepG2 cells were seeded into 96-well plates in EMEM medium. Compounds were assessed for their effect upon cellular viability (Supplementary Methods 5.1). Inhibition of CYP450 was determined using kits from BD Biosciences (Supplementary Methods 5.2). Metabolic stability was determined using mouse […] tested at a single concentration of 5 µM. Plasma protein binding was determined using mouse and human plasma at a single concentration of 10 µM (Supplementary Methods 5.4). All PK studies in mice were carried out by Pharmidex (Supplementary Methods 6.1).
Compounds were tested for their metabolic stability using mouse and human liver microsomes (MLM and HLM). The compounds were tested at a single concentration of 5 µM. The samples were crashed with acetonitrile and put through protein precipitation plates. The eluent was analysed by LC/MS or LC/MS/MS.

The test system of another series is T. b. brucei Lister 427. Put plainly: Mouse model of stage 1 HAT. In kind it is in vivo, T. b. brucei in female CD-1 mice. Particulars: three oral 50 mg kg^−1 doses 2 h apart daily over 2 days, n = 5. On the procedure:
T. b. brucei Lister 427 infection is cured by 1-day dosing. […] These parasites have a doubling time of ~6 h and infection with 1 × 10^5 parasites usually requires euthanasia of mice within 4–5 days of infection in the absence of drug treatment. Drug efficacy is determined by taking regular blood samples from infected mice and checking microscopically for parasitaemia. In this model of acute infection a single surviving parasite should proliferate to reach detectable levels in ~5 days and a 30-day period of no parasite detection is considered as cure.
For the mouse model of stage 1 HAT T. b. brucei Lister 427 parasites (1 × 10^5) were injected into a single donor female CD-1 mouse (University of Edinburgh; 6–8 weeks old) intraperitoneally in D-PBS containing 10 mM glucose. Parasites for subsequent stage 1 HAT infection were obtained from whole blood via cardiac puncture, under gaseous isoflurane anaesthesia. Parasites (1 × 10^3) harvested from the donor mouse were then injected into the peritoneum of female CD-1 mice (University of Edinburgh; 6–8 weeks old) in D-PBS containing 10 mM glucose. One day after infection, animals were either left untreated (n = 3) or dosed orally by gavage (n = 5) with CTCB compound in Cremophor EL: EtOH: D-PBS (30:10:60 v/v; Supplementary Methods 6.3).
T. b. brucei Lister 427 parasites (1 x 10^5) were injected into a single donor female CD-1 mouse (University of Edinburgh; 6-8 weeks old) intraperitoneally in D-PBS containing 10 mM glucose. Parasites for subsequent Stage 1 HAT infection were obtained from whole blood via cardiac puncture, under gaseous isoflurane anaesthesia as described above. Parasites (1 x 10^3) harvested from the donor mouse were then injected into the peritoneum of female CD-1 mice (University of Edinburgh; 6-8 weeks old) in D-PBS containing 10mM glucose. One day after infection, animals were either left untreated (n=3) or dosed orally by gavage (n=5) with CTCB compound in Cremophor EL: EtOH : D-PBS (30:10:60 v/v). The veterinary trypanocidal drug pentamidine isethionate (2.5 mg/kg for 4 consecutive days after infection) was administered intraperitoneally as control (n=3) for parasite elimination. Mice were monitored daily for parasitaemia day 1 post-infection onwards. Trypanosomes were quantified in blood samples from the tail vein by microscopy as previously described (12). Animals were sacrificed on the day that parasites were first detected in blood samples. (Supplementary Figure 11)

Series [3] can be described thus: Tolerance studies and plasma levels after multiple oral dosing. It counts as in vivo. Particulars: mice, oral. On the procedure:
All efficacy studies were carried out using CD-1 mice in accordance with the United Kingdom Animals (Scientific Procedures) Act (1986) under Home Office regulations. Studies were performed in SPF facilities at the University of Edinburgh under licence PPL 70/8102 and at the University of Glasgow under PPL 60/4442. The experiments were approved by the local ethics committees of the respective universities. Dosing regimens used in efficacy studies were first tested for tolerance in female CD-1 mice (University of Edinburgh; 6–8 weeks old). Animals were dosed orally by gavage with CTCB compounds following the dosing regimen for each individual experiment (n = 5; Supplementary Methods 6.2).
Dosing regimens used in efficacy studies were first tested for tolerance in female CD-1 mice (University of Edinburgh; 6-8 weeks old). Animals were dosed orally by gavage with CTCB compounds following the dosing regimen for each individual experiment (n=5) as indicated. Compounds were administered in a mixture containing Cremophor EL: EtOH: D-PBS (30:10:60 v/v). Animals were monitored for up to 8 hours post-dosing. On the final day of dosing, 2 hours after the final dose, whole blood was harvested from three mice via cardiac puncture, under gaseous isoflurane anaesthesia, to obtain plasma for analyses. The remaining two mice were monitored for several days post dosing. To avoid coagulation, 100 μl of 2% sodium citrate was utilised in the syringe during the procedure and blood samples subsequently transferred to heparin coated microtubules. Blood samples were centrifuged at 800 x g for 10 minutes at room temperature. The supernatant containing the plasma was transferred to a fresh tube for determination of compound levels and further PK analysis.

The term Cmax denotes the maximum level reached in the sampled fluid or tissue. The term Tmax denotes the time at which the peak concentration occurs. Regarding `CN(C)CCn1ccc2c(ccn2Cc2ccc(Cl)c(Br)c2)c1=O` [CTCB-470, 1-[(3-Bromo-4-chlorophenyl)methyl]-5-[2-(dimethylamino)ethyl] pyrrolo[3,2-c]pyridin-4-one], in series [1] (IV 1 mg kg^−1), the AUC(0-inf) was found to be 657 ng·h/mL, the clearance was 25 mL/min/kg, the half-life is 3.1 h and the Vd turned out to be 6.9 L/kg. In series [1] (PO 10 mg kg^−1), the highest level (Cmax) was 393 ng/mL, the Tmax stood at 0.5 h and the AUC(0-inf) was found to be 1560 ng·h/mL. In addition, the bioavailability in series [1] turned out to be 24%. Also, the microsomal CLint at 5 µM in series [2] is 91 µL/min/mg. For the same compound, the outcome of treatment in the series on T. b. brucei Lister 427 is recorded as “either complete clearance or a significant increase in survival”. In addition, the “tolerance of high doses” value in series [3] was “well tolerated”.
In the case of `CN(C)CCn1ccc2c(ccn2Cc2ccc(F)c(Br)c2)c1=O` [CTCB-508, 1-[(3-Bromo-4-fluorophenyl)methyl]-5-[2-(dimethylamino)ethyl] pyrrolo[3,2-c]pyridin-4-one], in series [1] (IV 1 mg kg^−1), the AUC(0-inf) came to 349 ng·h/mL, the clearance is 45 mL/min/kg, the half-life was 0.7 h and the Vd was 2.9 L/kg. Further, in series [1] (PO 10 mg kg^−1), the concentration peaked (Cmax) at 1330 ng/mL, the Tmax came to 2 h and the AUC(0-inf) came to 4170 ng·h/mL. Moreover, in series [1], the bioavailability was 119%. The microsomal CLint at 5 µM in series [2] was determined as 56 µL/min/mg. In addition, the outcome of treatment in the series on T. b. brucei Lister 427 is on record as “either complete clearance or a significant increase in survival”. Besides, in series [3], the “tolerance of high doses” value is on record as “well tolerated”.
